Laboratory results: BindingDB's records for doi:10.1007/BF00173012 (Sandoz Pharma, 1994)
*1 amine or outer side, *2 acyl side, *3 side chain or, on linkers, in order; H or OH if unused. Where a SMILES comes first, the peptide text is derived from it. Bridges are numbered along the chain shown (N, C = ends). [ ]: non-standard residue; d: D form. The star is where a group is joined. ξ: configuration not given here. X3 = C[C@@H](C(=O)[*:2])N(Cc1ccc2ccccc2c1)[*:1]; Phe(4-Cl) = N[C@@H](Cc1ccc(Cl)cc1)C(=O)O; dThr(3ξ) = CC(O)[C@@H](N)C(=O)O; ξF = NC(Cc1ccccc1)C(=O)O; X2 = CC(O)[C@H](CO)N*; Ahp = NCCCCCCC(=O)O; ξC = NC(CS)C(=O)O

The compounds below were run against T1, Somatostatin receptor type 5 (Rattus norvegicus, UniProt P30938).
T1 sequence (P30938 whole entry): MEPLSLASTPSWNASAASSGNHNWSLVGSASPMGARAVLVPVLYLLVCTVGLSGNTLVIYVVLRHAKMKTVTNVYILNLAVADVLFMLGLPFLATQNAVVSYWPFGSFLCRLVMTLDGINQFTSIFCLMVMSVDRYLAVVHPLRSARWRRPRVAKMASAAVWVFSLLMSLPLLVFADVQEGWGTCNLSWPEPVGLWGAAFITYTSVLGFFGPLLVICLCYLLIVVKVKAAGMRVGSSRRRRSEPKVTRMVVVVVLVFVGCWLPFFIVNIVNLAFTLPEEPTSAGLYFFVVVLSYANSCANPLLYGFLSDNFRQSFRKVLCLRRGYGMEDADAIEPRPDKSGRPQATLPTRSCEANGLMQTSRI

Structure (SMILES)	Ki
CC(O)[C@H](CO)NC(=O)[C@@H]1CSSCC(NC(=O)C(N)Cc2ccccc2)C(=O)N[C@H](Cc2ccccc2)C(=O)N[C@H](Cc2c[nH]c3ccccc23)C(=O)N[C@H](CCCCN)C(=O)N[C@H](C(C)O)C(=O)N1 (some centres not stated) (H-[ξF][ξC][dF][dW][dK][dThr(3ξ)]C-X2; disulfide 2-7)	0.57 nM
CC(C)[C@@H]1NC(=O)[C@H](CCCCN)NC(=O)[C@@H](Cc2c[nH]c3ccccc23)NC(=O)[C@H](Cc2ccc(O)cc2)NC(=O)[C@@H](NC(=O)[C@H](N)Cc2ccc3ccccc3c2)CSSC[C@@H](C(=O)N[C@H](C(N)=O)[C@@H](C)O)NC1=O [3-(2-Naphtyl)-D-Ala-L-Cys(1)-L-Tyr-D-Trp-L-Lys-L-Val-L-Cys(1)-L-Thr-NH2]	0.1 nM
CC(C)[C@H](NC(=O)[C@H](CCCCN)NC(=O)[C@@H](Cc1c[nH]c2ccccc12)NC(=O)[C@H](Cc1ccc(O)cc1)NC(=O)[C@H](Cc1ccccc1)NC(=O)[C@@H](N)Cc1ccccc1)C(=O)N[C@@H](Cc1ccccc1)C(=O)N[C@H](C(N)=O)[C@@H](C)O [BIM-23058] (H-FFY[dW]KVFT-NH2)	1.2 nM
CC(C)C1NC(=O)C(CCCCN)NC(=O)C(Cc2c[nH]c3ccccc23)NC(=O)C(Cc2ccc(O)cc2)NC(=O)C(NC(=O)C(N)Cc2ccccc2)CSSCC(C(=O)NC(Cc2c[nH]c3ccccc23)C(N)=O)NC1=O (configuration not stated) [CAS_71306] (H-FCYWKVCW-NH2; disulfide 2-7; configuration not given here)	1.58 nM
CC(C)C1NC(=O)C(CCCCN)NC(=O)C(Cc2c[nH]c3ccccc23)NC(=O)C(Cc2ccc(O)cc2)NC(=O)C(C)N(C)C(=O)C(Cc2ccccc2)NC1=O (configuration not stated) [CAS_3086456]	5.49 nM
C[C@H](O)[C@@H]1NC(=O)C(CCCCN)NC(=O)[C@@H](Cc2c[nH]c3ccccc23)NC(=O)C(Cc2ccccc2)NC(=O)C(Cc2ccccc2)NC(=O)C(CC(N)=O)NC(=O)C(CCCCN)NC(=O)CCCCC[C@H](C(=O)O)NC(=O)[C@@H](CO)NC(=O)[C@H]([C@H](C)O)NC(=O)[C@@H](Cc2ccc(O)cc2)NC1=O (some centres not stated) [CGP-23996]	4.67 nM
CC(C)[C@H](NC(=O)[C@H](CCCCN)NC(=O)[C@@H](Cc1c[nH]c2ccccc12)NC(=O)[C@H](Cc1ccc(O)cc1)NC(=O)[C@H](C)NCc1ccc2ccccc2c1)C(=O)N[C@@H](C)C(=O)N[C@H](C(N)=O)[C@@H](C)O [D-Nal-Ala-Tyr-D-Trp-Lys-Val-Ala-Thr-NH2] (H-[X3]Y[dW]KVAT-NH2)	145 nM
CC(CO)C(NC(=O)C1NC(=O)N[C@@H](Cc2ccc(O)cc2)C(=O)N[C@H](Cc2c[nH]c3ccccc23)C(=O)N[C@@H](CCCCN)C(=O)N[C@@H](C(C)CO)C(=O)NC(C(=O)N[C@@H](Cc2ccc3ccccc3c2)C(N)=O)SS1)C(N)=O (stereo partly drawn) [D-Nal-c[Cys-Tyr-D-Trp-Lys-Thr-Cys]-Thr-NH2]	0.07 nM
CC[C@@H]1NC(=O)[C@H](CCCCN)NC(=O)[C@@H](Cc2c[nH]c3ccccc23)NC(=O)[C@H](Cc2ccc(O)cc2)NC(=O)[C@@H](NC(=O)[C@H](N)Cc2ccccc2)CSSC[C@@H](C(=O)N[C@H](C(N)=O)[C@@H](C)O)NC1=O [D-Phe-L-Cys(1)-L-Tyr-D-Trp-L-Lys-L-Abu-L-Cys(1)-L-Thr-NH2]	0.18 nM
C[C@@H](O)[C@@H]1NC(=O)[C@H](CCCCN)NC(=O)[C@@H](Cc2c[nH]c3ccccc23)NC(=O)[C@H](Cc2ccccc2)NC(=O)[C@H](Cc2ccc(Cl)cc2)NC(=O)CCCCCCNC(=O)[C@H](Cc2ccccc2)NC1=O [L-362862] (cyclo([Ahp][Phe(4-Cl)]F[dW]KTF))	0.46 nM
C[C@@H](Oc1ccccc1)[C@@H]1NC(=O)[C@H](CCCCN)NC(=O)[C@@H](Cc2c[nH]c3ccccc23)NC(=O)[C@H](Cc2ccccc2)NCCCCCCNC1=O [c[Aha-Phe-D-Trp-Lys-Thr(Bzl)]]	51.3 nM

These compounds were tested against Somatostatin receptor type 4 (Mus musculus, UniProt P49660).
Sequence of Somatostatin receptor type 4 (P49660 whole entry): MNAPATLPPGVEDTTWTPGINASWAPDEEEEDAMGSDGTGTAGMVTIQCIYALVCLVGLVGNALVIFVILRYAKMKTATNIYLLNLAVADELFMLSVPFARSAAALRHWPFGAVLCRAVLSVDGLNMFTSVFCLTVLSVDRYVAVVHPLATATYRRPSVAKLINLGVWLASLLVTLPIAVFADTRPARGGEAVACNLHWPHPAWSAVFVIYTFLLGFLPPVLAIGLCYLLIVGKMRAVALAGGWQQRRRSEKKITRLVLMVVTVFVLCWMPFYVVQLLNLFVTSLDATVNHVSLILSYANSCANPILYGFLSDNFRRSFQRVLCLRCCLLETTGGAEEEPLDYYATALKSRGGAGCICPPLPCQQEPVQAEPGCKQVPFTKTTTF

Structure (SMILES)	Ki
CC(C)[C@@H]1NC(=O)[C@H](CCCCN)NC(=O)[C@@H](Cc2c[nH]c3ccccc23)NC(=O)[C@H](Cc2ccc(O)cc2)NC(=O)[C@H](C)N(C)C(=O)[C@H](Cc2ccccc2)NC1=O [CAS_3086456]	1000 nM
